The values below come from US9271493B2, “Methods for microbial biofilm destruction” (priority 2012, dated 2016).

Read-outs that look alike come from different tables or passages of the source.

Assay [1] concerns UTI89. Nature of the assay: pellicle formation (biofilm at the air-liquid interface). It is filed as cell-based, uropathogenic E. coli. The note with it: for pellicle formation / biofilm formation at the air-liquid interface: UTI89; for concentration preventing formation of a biofilm at the air-liquid interface: UTI89, complete inhibition. As for the experimental part: (§1) Biofilm assays. Colony biofilm formation was initiated by spotting 10 μl of overnight bacterial culture onto a YESCA agar plate (Kolodkin-Gal et al. (2010) Science 328:627-629). Colony morphology was observed after designated growth times at 26° C. Biofilm in YESCA broth attached to plastic (polyvinyl chloride, PVC) was determined using the Kolter crystal violet assay as described by O'Toole et al. (1998) Mol. Microbiol. 28:449-461. Briefly, bacterial cells were grown in 96-well PVC plates; unattached cells were washed away; and cells remaining associated with the PVC wells were stained with 0.1% crystal violet. The extent of biofilm formation was quantified by measuring the absorbance of crystal violet at OD595 after dissolving the PVC-associated biomass in 95% ethanol. The percent biofilm represents the increase in biofilm formation in the presence of various concentrations of DMSO and ethanol relative to biofilm formation when no compound was present. The mean of triplicate individual experiments was used and error bars represent the standard deviation. Pellicle formation was initiated by inoculating 4 μL of an overnight bacterial culture grown in YESCA broth in 4 mL YESCA in 12-well-plate wells and incubated at 26° C. Pellicle formation was inspected visually and assessed by perturbation with a pipet tip after 72 hours of growth.

Assay [2] relates to UTI89. Nature of the assay: colony biofilm formation on YESCA agar. It is filed as cell-based, uropathogenic E. coli. The note with it: for biofilm formation on agar (colony morphology): UTI89 on YESCA agar. As for the experimental part: (§2) Growth conditions. UTI89, UTI89ΔcsgA, MC4100, and MC4100Δcsg were grown on YESCA (0.5 g/L yeast extract; 10 g/L Casamino acids) agar supplemented with additional compounds as indicated.
as §1

Assay [3] relates to UTI89. Nature of the assay: biofilm attached to PVC plastic, 96-well crystal violet assay. The assay is classed as cell-based, uropathogenic E. coli. The protocol:
as §1

Assay [4] concerns curli proteins, CsgA and CsgG. Nature of the assay: Western blot analysis of cell-associated curli proteins. It is filed as cell-based, E. coli. The protocol: Western blot analysis. The cell-associated curli proteins, CsgA and CsgG, were examined by immunoblot assays as described (41). Briefly, whole-cell samples with equivalent cell number were prepared as cell pellets of 1 mL cell culture with an OD600 of 1.0. Each pellet was treated with 100 μL hexafluoroisopropanol (HFIP) to dissociate curli subunits (41). HFIP was removed by vacuum centrifugation, and samples were resuspended in SDS-PAGE loading buffer. Protein gel electrophoresis was carried out using 12% SDS-PAGE gels (Invitrogen) and blotted onto […] nitrocellulose transfer membranes (Whatman). The polyclonal rabbit antiserum to CsgA or CsgG was used as the primary antibody and horseradish peroxidase (HRP) conjugated goat anti-rabbit antibody (Pierce) was used as the secondary antibody (55).
For orientation: Immunoblotting shows a protein as a band on a membrane.

In a further assay the test system is E. coli strain MC4100. Nature of the assay: fibronectin-binding assay (adhesion to fibronectin-coated plates). The assay is classed as cell-based. The note with it: MC4100 grown under curli-producing conditions on agar in the presence of compound; dose-dependent.
Excerpt: We employed a commonly used fibronectin-binding assay to determine whether curcumin blocks adhesion of E. coli strain MC4100 to fibronectin-coated plates. MC4100 is the E. coli strain in which curli biogenesis was first described. […] UTI89, on the other hand, is a prototypical biofilm-competent strain that forms biofilms on agar, on plastic, and at an air-liquid interface when expressing curli and cellulose. Since curli are sufficient to mediate binding to fibronectin, the use of MC4100 readily allows one to determine whether a compound or external stimulus can influence curli-dependent adhesion.
as §2

In the next assay the test system is E. coli. Nature of the assay: biofilm formation attached to Teflon (1 mL Teflon beakers, crystal violet). It is filed as cell-based. The note with it: 48 hours at 26° C. in YESCA broth. The protocol:
FIG. 4. Curcumin and dim ethyl curcumin reduce E. coli biofilm formation attached to Teflon using 1 mL Teflon beakers. After bacterial incubation for 48 hours at 26° C. in YESCA nutrient broth in the presence or absence of compounds, planktonic and loosely associated bacteria were washed from the beakers and adherent bacteria were stained with crystal violet, dissolved in ethanol and quantified by spectrophotometry.
Teflon is often used as a material in various industrial and biomedical applications, including the production of catheters. Teflon is often employed due to its general anti-adherent properties. Yet, even E. coli can adhere to Teflon and forms biofilms on Teflon surfaces. Thus, we also examined the ability of curcumin and DMC to prevent biofilm formation attached to Teflon using small 1-mL Teflon beakers.

Assay [5] concerns the target T1, curli (Escherichia coli, UniProt P28307). The note with it: McCrate, Zhou, and Cegelski 2013; cited from earlier work.
The next assay addresses amyloid β (Homo sapiens, UniProt P05067). To be noted: oligomer form and fibril form; Yang et al. 2005; cited from earlier work.
Assay [6] deals with Alzheimer's β-amyloid fibrils (Homo sapiens, UniProt P05067). The note with it: Ono et al. 2004; cited from earlier work.
Alzheimer's β-amyloid fibrils, sequence (P05067 672-713 limits assumed): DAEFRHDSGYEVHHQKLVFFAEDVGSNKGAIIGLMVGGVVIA
The target in assay [7] is T1, curli. To be noted: cited from earlier work.

T1 sequence (P28307 21-151): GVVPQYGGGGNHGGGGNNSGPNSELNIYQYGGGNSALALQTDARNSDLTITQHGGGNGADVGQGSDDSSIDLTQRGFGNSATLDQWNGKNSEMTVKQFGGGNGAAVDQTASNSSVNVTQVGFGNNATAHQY
amyloid β, sequence (P05067 672-713 limits assumed): as the sequence (P05067 672-713 limits assumed) above

For `Nc1c(/N=N/c2ccc(-c3ccc(/N=N/c4cc(S(=O)(=O)O)c5ccccc5c4N)cc3)cc2)cc(S(=O)(=O)O)c2ccccc12` [Congo red], the “pellicle formation / biofilm formation at the air-liquid interface” value in the assay with UTI89 [1] is recorded as “not”. Moreover, the “biofilm formation on agar (colony morphology)” value with UTI89 [2] is reported as “does not block biofilm formation”.
Consider `COc1ccc(/C=C/C(=O)CC(=O)/C=C/c2ccc(OC)c(OC)c2)cc1OC` [DMC, dimethoxycurcumin], for which the “concentration preventing formation of a biofilm at the air-liquid interface” value with UTI89 [1] came to 10 µM. In addition, in the assay with UTI89 [3], the “concentration blocking biofilm formation attached to plastic (PVC)” value is 10 µM.
For the compound `COc1cc(/C=C/C(=O)CC(=O)/C=C/c2ccc(O)c(OC)c2)ccc1O` [curcumin], in the assay on UTI89 [1], the “pellicle formation / biofilm formation at the air-liquid interface” value is listed as “completely prevent pellicle formation” and the “concentration preventing formation of a biofilm at the air-liquid interface” value was found to be 25 µM. Also, the “production of curli proteins” value in assay [4] (MC4100, Western blot) was “did not influence”. In assay [4] (UTI89, Western blot), the curli production entry is recorded as “not affected”. The “adhesion to the protein fibronectin” value in the assay on E. coli strain MC4100 was “reduced adhesion”. For the same compound, in the assay on UTI89 [2] (UTI89, 5 days of bacterial growth), the “biofilm inhibition on agar after 5 days” value is “diminished after 5 days”. The “biofilm formation on agar (colony morphology)” value in the assay with UTI89 [2] was “lost the hallmark rough and wrinkled phenotype”. Moreover, in the assay on E. coli, the “biofilm formation attached to Teflon” value is recorded as “effective at significantly preventing biofilm formation”. Besides, at curli [5], the binding to curli entry was “binding to curli”. In addition, at amyloid β, the “binding to amyloid β” value was “bind”. In the assay with UTI89 [3], the “concentration blocking biofilm formation attached to plastic (PVC)” value was found to be 25 µM. Also, in the assay on UTI89 [3] (listed as curumin), the “concentration blocking biofilm formation attached to plastic (PVC)” value is 10 µM. Moreover, in assay [6], the “amyloid fibril formation in vitro” value is given as “prevent amyloid fibril formation”.
As to LL-37, the curli formation result on curli [7] is given as “inhibits curli formation”.
